Measured values: ChEMBL document CHEMBL1201862, “PubChem BioAssay data set” (2004)
Active and inactive are the calls of the source. Cut-off read from the data, not from the text of the source, for most assays here: actives have a measured EC50 and inactives only a lower limit.

What was measured:
[1] = Luminescence Cell-Based Dose Response HTS to Identify Inhibitors of 5'UTR Stem-Loop Driven Prion Protein mRNA Translation in H4 Neuroglioblastoma Cells. [Related pubchem assays: 1827 (Project Summary), 1813 (Primary HTS)]; type: functional
[2] = inhibitors of firefly luciferase expression or activity, dose response, H4 neuroglioma cells, luminescence (AID 1990); type: functional, cell-based
[3] = inhibitors of SNCA 5'UTR-driven reporter translation, confirmation, H4 neuroglioma cells, luminescence (AID 1988); type: functional, cell-based
[4] = molecular target: T1, Carboxy-terminal domain RNA polymerase II polypeptide A small phosphatase 1 (Homo sapiens, UniProt Q9GZU7); test: inhibitors of CTDSP1, concentration-response testing, biochemical assay, absorbance-based, actives from ultra-high-throughput screening (AID 540297); type: functional
T1 sequence (Q9GZU7 whole entry): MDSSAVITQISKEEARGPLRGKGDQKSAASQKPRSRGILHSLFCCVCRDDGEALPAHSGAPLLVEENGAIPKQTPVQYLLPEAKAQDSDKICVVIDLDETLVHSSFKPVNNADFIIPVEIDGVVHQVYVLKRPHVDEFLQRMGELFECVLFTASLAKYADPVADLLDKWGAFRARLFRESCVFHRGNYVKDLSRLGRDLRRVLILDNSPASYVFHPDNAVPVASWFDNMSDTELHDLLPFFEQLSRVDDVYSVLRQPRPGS

[5] = molecular target: T2, Polyadenylate-binding protein 1 (Homo sapiens, UniProt P11940); test: PABP1 MLLE–PAM2 binding inhibitor potency, dose response, biochemical, fluorescence polarization, FITC-PAM2 peptide (AID 602259); type: functional; details: read-out: IC50_Mean
[6] = molecular target: T2, Polyadenylate-binding protein 1; test: PABP1 MLLE–PAM2 interaction inhibitors, dose response, miRNA deadenylation inhibitor project, biochemical, fluorescence polarization, Cy5-PAM2 peptide, secondary (AID 602260); type: functional; details: read-out: IC50_Mean
[7] = Luminescence Cell-Based Dose Response HTS to Identify Activators of Luciferase Translation or Activity in H4 […] Cells. [Related pubchem assays: 1829 (Project Summary), 1814 (Primary HTS)]; type: functional
H4 = test: Luminescence Cell-Based Dose Response HTS to Identify Activators of 5'UTR Stem-Loop Driven Prion Protein mRNA Translation in H4 Neuroglioblastoma Cells. [Related pubchem assays: 1829 (Project Summary), 1814 (Primary HTS)]; type: functional; details: Homo sapiens
[8] = NIH-3T3 fibroblast cytotoxicity, dose response, cytotoxicity control, cell-based, fluorescence, Alamar Blue, secondary assay (AID 2327); type: functional;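 note: NIH-3T3 mouse fibroblasts cultured with fluconazole at 8 µg/mL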
[9] = C. albicans growth with fluconazole, confirmation, fluorescence, retest (AID 2467); type: functional, cell-based
Protein skinhead-1 = molecular target: T3, Protein skinhead-1 (Caenorhabditis elegans, UniProt P34707); type: functional
T3 sequence (P34707 whole entry): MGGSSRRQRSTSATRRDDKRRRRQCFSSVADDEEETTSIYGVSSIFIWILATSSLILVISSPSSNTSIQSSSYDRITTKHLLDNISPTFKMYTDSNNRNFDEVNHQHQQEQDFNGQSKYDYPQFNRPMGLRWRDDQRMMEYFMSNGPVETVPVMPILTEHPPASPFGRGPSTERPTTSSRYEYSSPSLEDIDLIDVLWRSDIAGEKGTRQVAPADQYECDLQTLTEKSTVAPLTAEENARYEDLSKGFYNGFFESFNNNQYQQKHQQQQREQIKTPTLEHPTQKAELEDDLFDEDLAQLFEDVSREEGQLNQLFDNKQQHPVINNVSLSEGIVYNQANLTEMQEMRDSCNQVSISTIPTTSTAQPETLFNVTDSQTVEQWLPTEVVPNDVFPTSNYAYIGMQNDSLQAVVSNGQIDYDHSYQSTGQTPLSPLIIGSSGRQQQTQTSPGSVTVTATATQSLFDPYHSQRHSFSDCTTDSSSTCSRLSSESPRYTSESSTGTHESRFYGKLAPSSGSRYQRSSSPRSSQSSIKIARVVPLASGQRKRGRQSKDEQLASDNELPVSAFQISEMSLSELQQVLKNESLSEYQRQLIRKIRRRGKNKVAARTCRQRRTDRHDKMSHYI

[10] = molecular target: T4, Heat shock factor protein 1 (Mus musculus, UniProt P38532); test: HSF1 potentiators in luciferase reporter cells, confirmation, cell-based, NIH3T3, luminescence, dose retest (AID 435004); type: functional;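 note: stress induced by proteasome inhibitor MG132 added 30 min after compound; luciferase reporter driven by HSF1 response element in NIH3T3 cells; actives raise luminescence as potentiators of the MG132 stress response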
T4 sequence (P38532 whole entry): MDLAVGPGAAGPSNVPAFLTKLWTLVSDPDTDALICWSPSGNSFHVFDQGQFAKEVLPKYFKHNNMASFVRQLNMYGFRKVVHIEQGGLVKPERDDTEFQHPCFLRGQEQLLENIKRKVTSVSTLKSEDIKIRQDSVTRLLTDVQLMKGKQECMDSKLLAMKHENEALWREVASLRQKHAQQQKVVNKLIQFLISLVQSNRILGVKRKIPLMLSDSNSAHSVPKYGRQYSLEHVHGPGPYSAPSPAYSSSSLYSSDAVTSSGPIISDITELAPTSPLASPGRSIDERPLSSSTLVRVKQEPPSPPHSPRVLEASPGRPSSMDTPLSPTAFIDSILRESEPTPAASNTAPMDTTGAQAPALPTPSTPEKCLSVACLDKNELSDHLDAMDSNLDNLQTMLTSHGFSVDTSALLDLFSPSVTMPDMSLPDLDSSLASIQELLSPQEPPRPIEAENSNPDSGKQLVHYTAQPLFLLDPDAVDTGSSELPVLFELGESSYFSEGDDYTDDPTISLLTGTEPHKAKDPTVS

[11] = inhibitors of clade B AD8 Env fusion, dose response, cell-based, cherry-pick (AID 652062); type: functional;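 note: luciferase signal from cell-cell fusion driven by HIV-1 clade B AD8 Env; potency is for inhibitors of fusion seen as a drop in luminescence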

T2 sequence (P11940 whole entry): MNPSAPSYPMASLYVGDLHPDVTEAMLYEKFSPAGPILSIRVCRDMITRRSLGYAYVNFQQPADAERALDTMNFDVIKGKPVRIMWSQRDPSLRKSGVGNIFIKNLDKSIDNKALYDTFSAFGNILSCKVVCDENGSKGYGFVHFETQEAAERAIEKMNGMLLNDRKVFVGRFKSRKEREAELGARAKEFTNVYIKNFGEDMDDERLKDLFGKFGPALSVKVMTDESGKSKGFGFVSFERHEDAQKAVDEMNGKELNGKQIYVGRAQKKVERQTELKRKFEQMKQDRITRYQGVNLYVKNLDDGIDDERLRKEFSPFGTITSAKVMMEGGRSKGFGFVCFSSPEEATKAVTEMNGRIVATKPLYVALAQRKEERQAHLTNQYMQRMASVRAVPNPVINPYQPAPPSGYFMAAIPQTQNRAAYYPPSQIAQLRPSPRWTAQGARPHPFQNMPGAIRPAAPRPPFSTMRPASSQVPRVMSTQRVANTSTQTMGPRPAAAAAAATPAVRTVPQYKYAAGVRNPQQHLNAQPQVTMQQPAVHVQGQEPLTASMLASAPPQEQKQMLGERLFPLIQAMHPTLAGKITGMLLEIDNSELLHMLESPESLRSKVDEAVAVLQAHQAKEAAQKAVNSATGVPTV

## Nc1nc(Nc2ccccc2)nc(NCc2ccccc2)c1[N+](=O)[O-]
[1]
  EC50: > 120 µM (not active)
[2]
  EC50: 17 µM (active)
[3]
  EC50: 44.7 µM (active)

## CCOC(=O)/C=C1\CN(CCC(C)C)S(=O)(=O)c2ccccc21
[4]
  IC50: 45.3 µM (active)

## CCC(OC(=O)CC1Sc2ccccc2NC1=O)C(=O)NCC1CCCO1 (stereo not given)
[5]
  IC50: > 66 µM (inactive)
[6]
  IC50: > 66 µM (inactive)

## O=C(NN=C(NS(=O)(=O)c1ccc(Cl)cc1)c1ccccc1)c1cccc(Cl)c1
[7]
  EC50: 7.54 µM (active)
H4
  EC50: > 120 µM (not active)

## CCCCn1c(=O)[nH]c(=O)c2c1nc(-c1ccc(-c3ccccc3Br)o1)n2CC
[8]
  EC50: > 150 µM (inconclusive)
[9]
  EC50: > 38 µM (not active)

## O=C(C[N+]12CCC(CC1)C(C(O)(c1ccccc1)c1ccccc1)C2)c1ccc(Br)cc1 (stereo not given)
[8]
  EC50: > 160 µM (inconclusive)
[9]
  EC50: 1.45 µM (active)

## CC(=O)C1=C(O)C(=O)N(C)C1c1ccccc1[N+](=O)[O-] (stereo not given)
[5]
  IC50: > 66 µM (inactive)
[6]
  IC50: > 66 µM (inactive)

## CCCCOc1ccc(C(=O)OC2CC(C)N(C)CC2C)cc1 (stereo not given)
Protein skinhead-1
  IC50: 27.6 µM (active)

## Nc1ccc(Sc2ccc([N+](=O)[O-])cc2)cc1
[8]
  EC50: > 160 µM (inactive)
[9]
  EC50: > 38 µM (not active)

## Brc1ccc2nc(N3CCCC3)sc2c1
Protein skinhead-1
  IC50: 79.4 µM (inactive)

## O=C(N/N=C/c1ccncc1)c1cc2ccccc2cc1O
[10]
  EC50: 106 µM (active)
[8]
  EC50: > 150 µM (inactive)
[9]
  EC50: > 38 µM (not active)

## COc1ccc2oc(=O)c(C(=O)OCc3ccccc3)cc2c1
[5]
  IC50: > 66 µM (inactive)
[6]
  IC50: > 66 µM (inactive)

## Fc1ccc(-n2nnc(-c3nccs3)n2)cc1
Protein skinhead-1
  IC50: 22.8 µM (active)

## CC1CCN(c2ccc(S(=O)(=O)Nc3cc(C(=O)O)cc(C(=O)O)c3)cc2[N+](=O)[O-])CC1
[4]
  IC50: 9.99 µM (active)

## CCCCCCNC(=O)CCNS(=O)(=O)c1ccc(C)cc1
[1]
  EC50: > 120 µM (not active)
[2]
  EC50: > 120 µM (not active)
[3]
  EC50: > 120 µM (not active)

## N#Cc1c(O)nc(-c2ccco2)c2c1CCCC2
[5]
  IC50: > 66 µM (inactive)
[6]
  IC50: > 66 µM (inactive)

## O=C(C[C@@H]1C=C[C@@H](NC(=O)Nc2ccc3c(c2)OCO3)[C@H](CO)O1)NCc1ccc(F)cc1
[11]
  AC50: 4.77 µM (active)

## COc1cccc2sc(NNC(=O)c3nc4ccccc4s3)nc12
[1]
  EC50: 16.5 µM (active)
[2]
  EC50: > 120 µM (not active)
[3]
  EC50: > 120 µM (not active)

## Cc1cc(C)n(CC(C)NC(=O)c2cc(COc3c(F)cccc3F)on2)n1 (stereo not given)
[1]
  EC50: > 120 µM (not active)
[2]
  EC50: > 120 µM (not active)
[3]
  EC50: > 120 µM (not active)

## O=C(NC(=S)Nc1ncccn1)c1ccccc1Cl
[5]
  IC50: > 66 µM (inactive)
[6]
  IC50: > 66 µM (inactive)

## Cc1cc2ccccn2c1C(=O)Nc1cccc(Cl)c1
Protein skinhead-1
  IC50: > 100 µM (inactive)
